Among the data in patent publication US20240083861A1, “HSD17B13 INHIBITORS AND USES THEREOF” (FL2022-001, Inc., priority 2020, published 2024) are IC50 values, retold here.

The target in the assay is T1, Recombinant human HSD17B13 enzyme (Homo sapiens, UniProt Q7Z5P4).
T1 sequence (Q7Z5P4 20-300): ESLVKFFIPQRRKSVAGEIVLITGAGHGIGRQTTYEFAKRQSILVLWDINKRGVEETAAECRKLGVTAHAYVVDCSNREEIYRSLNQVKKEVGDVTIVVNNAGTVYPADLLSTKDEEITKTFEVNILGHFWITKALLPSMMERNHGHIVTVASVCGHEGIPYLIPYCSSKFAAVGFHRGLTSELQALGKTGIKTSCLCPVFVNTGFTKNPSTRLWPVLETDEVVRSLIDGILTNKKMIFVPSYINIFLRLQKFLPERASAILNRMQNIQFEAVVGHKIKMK
In words: HSD17b13 NAD(P)H-Glo biochemical assay. Particulars: 50 uM estradiol, 1 mM NAD+, NAD(P)H-Glo luminescence; read-out: HSD17β13 IC50. The method, boiled down: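 Luminescent NAD(P)H-Glo read-out, taken after 1 hour at RT, measured cofactor reduction. Substrate and cofactor were estradiol at 50 uM and NAD+ at 1 mM final, reacted with the recombinant human enzyme for 3 hours at 37° C in 20 mM Tris pH7.4, 0.002% Tween-20, 0.02% BSA. Compound was pre-incubated with enzyme for 20 minutes at RT.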
For `CN1CCN(c2cc3c(cn2)c(-c2cc(C(F)(F)F)c(F)c(O)c2F)nn3C)C2(CCC2)C1` [Compound 9.96, 2,6-Difluoro-3-(1-methyl-6-(8-methyl-5,8-diazaspiro[3.5]nonan-5-yl)-1H-pyrazolo[4,3-c]pyridin-3-yl)-5-(trifluoromethyl)phenol], the IC50 is under 100 nM. Take `Cn1nc(-c2cc(C(F)(F)F)c(F)c(O)c2F)c2cnc(N3CCOC(c4nnc[nH]4)C3)nc21` (stereo not shown) [Compound 18.78, 3-(6-(2-(4H-1,2,4-Triazol-3-yl)morpholino)-1-methyl-1H-pyrazolo[3,4-d]pyrimidin-3-y1)-2,6-difluoro-5-(trifluoromethyl)phenol]: the concentration for half-maximal inhibition (IC50) fell in the range of 100 to 1000 nM. For the compound `Cn1nc(-c2ccc(F)c(O)c2F)c2cnc(N3CCOC4(CCC4)C3)cc21` [Compound 9.109, 2,6-Difluoro-3-(1-methyl-6-(5-oxa-8-azaspiro[3.5]nonan-8-yl)-1H-pyrazolo[4,3-c]pyridin-3-yl)phenol], the IC50 lay in the range of 100 to 1000 nM.

Regarding `Cn1nc(-c2cc(C(F)(F)F)c(F)c(O)c2F)c2cnc(N3CCNC4(CC4)C3=O)cc21` [Compound 9.53, 7-(3-(2,4-Difluoro-3-hydroxy-5-(trifluoromethyl)phenyl)-1-methyl-1H-pyrazolo[4,3-c]pyridin-6-yl)-4,7-diazaspiro[2.5]octan-8-one], the IC50 lay in the range of 100 to 1000 nM.

As to `Cn1nc(-c2cc(C(F)(F)F)c(F)c(O)c2F)c2cnc(N3CCCCC3)nc21` [Compound 18.35, 2,6-Difluoro-3-(1-methyl-6-(piperidin-1-yl)-1H-pyrazolo[3,4-d]pyrimidin-3-y1)-5-(trifluoromethyl)phenol], the IC50 was under 100 nM. To `Oc1cc(-c2n[nH]c3nc(N4CC5(CCOCC5)C4)ncc23)cc(C(F)(F)F)c1F` [Compound 10.01, 5-(6-(7-Oxa-2-azaspiro[3.5]nonan-2-yl)-1H-pyrazolo[3,4-d]pyrimidin-3-yl)-2-fluoro-3-(trifluoromethyl)phenol] belongs 100 to 1000 nM; to `CC(C)n1nc(-c2cc(C(F)(F)F)c(F)c(O)c2F)c2cnc(N3CCOCC34CC4)cc21` [Compound 9.34, 2,6-Difluoro-3-(1-isopropyl-6-(7-oxa-4-azaspiro[2.5]octan-4-yl)-1H-pyrazolo[4,3-c]pyridin-3-yl)-5-(trifluoromethyl)phenol], under 100 nM; to `Cn1nc(-c2cc(C(F)(F)F)c(F)c(O)c2F)c2cnc(N3CCOC(CO)C3)cc21` (stereo not shown) [Compound 9.97, 2,6-Difluoro-3-(6-(2-(hydroxymethyl)morpholino)-1-methyl-1H-pyrazolo[4,3-c]pyridin-3-yl)-5-(trifluoromethyl)phenol], 100 to 1000 nM. Regarding `Cn1nc(-c2cc(C(F)(F)F)c(F)c(O)c2F)c2cnc(N3CC4(CCCNC4=O)C3)nc21` [Compound 18.12, 2-(3-(2,4-Difluoro-3-hydroxy-5-(trifluoromethyl)phenyl)-1-methyl-1H-pyrazolo[3,4-d]pyrimidin-6-yl)-2,6-diazaspiro[3.5]nonan-5-one], the IC50 was in the range of 100 to 1000 nM. To `Cn1nc(-c2cc(C(F)(F)F)c(F)c(O)c2F)c2cnc(N3CCOC(CO)C3)nc21` (stereo not shown) [Compound 18.02, 2,6-Difluoro-3-(6-(2-(hydroxymethyl)morpholino)-1-methyl-1H-pyrazolo[3,4-d]pyrimidin-3-y1)-5-(trifluoromethyl)phenol] belongs 100 to 1000 nM; to `CN1CC(NC(=O)c2ccc3oc(-c4cc(C(F)(F)F)c(F)c(O)c4F)nc3c2)C1` [Compound 1.18, 2-(2,4-Difluoro-3-hydroxy-5-(trifluoromethyl)phenyl)-N-(1-methylazetidin-3-yl)benzo[d]oxazole-5-carboxamide], 1000 to 30000 nM. `O=C(NC1CCC1)c1ccc2oc(-c3cc(O)cc(C(F)(F)F)c3)nc2c1` [Compound 2, N-Cyclobutyl-2-(3-hydroxy-5-(trifluoromethyl)phenyl)benzo[d]oxazole-5-carboxamide]: the IC50 was 100 to 1000 nM. Regarding `Cn1nc(-c2cc(C(F)(F)F)c(F)c(O)c2F)c2cnc(N3CCOC(C4CCOCC4)C3)cc21` (stereo not shown) [Compound 9.133, 2,6-Difluoro-3-(1-methyl-6-(2-(tetrahydro-2H-pyran-4-yl)morpholino)-1H-pyrazolo[4,3-c]pyridin-3-yl)-5-(trifluoromethyl)phenol], the IC50 is under 100 nM. Take `Cn1nc(-c2cc(C(F)(F)F)c(F)c(O)c2F)c2cnc(N3CCOC4(CCOCC4)C3)nc21` [Compound 18.95, 2,6-Difluoro-3-(1-methyl-6-(1,9-dioxa-4-azaspiro[5.5]undecan-4-y1)-1H-pyrazolo[3,4-d]pyrimidin-3-y1)-5-(trifluoromethyl)phenol]: the IC50 was under 100 nM. Regarding `Cn1nc(-c2cc(C(F)(F)F)c(F)c(O)c2F)c2cnc(N3CCC4(CCCC(=O)N4)CC3)nc21` [Compound 18.26, 9-(3-(2,4-Difluoro-3-hydroxy-5-(trifluoromethyl)phenyl)-1-methyl-1H-pyrazolo[3,4-d]pyrimidin-6-yl)-1,9-diazaspiro[5.5]undecan-2-one], the IC50 is under 100 nM.

For `CS(=O)(=O)N1CC=C(c2ccc3c(-c4cc(O)c(F)c(C(F)(F)F)c4)n[nH]c3c2)CC1` [Compound 14, 2-Fluoro-5-(6-(1-(methylsulfonyl)-1,2,3,6-tetrahydropyridin-4-yl)-1H-indazol-3-yl)-3-(trifluoromethyl)phenol], the IC50 is 100 to 1000 nM. On to `Cn1nc(-c2cc(C(F)(F)F)c(F)c(O)c2F)c2cnc(N3CCOC4(CCC4)C3)nc21` [Compound 18, 2,6-Difluoro-3-(1-methyl-6-(5-oxa-8-azaspiro[3.5]nonan-8-yl)-1H-pyrazolo[3,4-d]pyrimidin-3-yl)-5-(trifluoromethyl)phenol], for which the IC50 was under 100 nM.

Take `O=C(NC12CC(C1)C2)c1cc2nc(-c3cc(O)c(F)c(C(F)(F)F)c3)oc2cn1` [Compound 1.24, N-(Bicyclo[1.1.1]pentan-1-yl)-2-(4-fluoro-3-hydroxy-5-(trifluoromethyl)phenyl)oxazolo[5,4-c]pyridine-6-carboxamide]: the IC50 is under 100 nM.

With `CS(=O)(=O)N1CCN(c2ccc3c(-c4cc(C(F)(F)F)cc(O)c4F)n[nH]c3c2)CC1` [Compound 11, 2-Fluoro-3-(6-(4-(methylsulfonyl)piperazin-1-yl)-1H-indazol-3-yl)-5-(trifluoromethyl)phenol], the IC50 is 1000 to 30000 nM.

Turning to `CN1CCN(c2cc3c(cn2)c(-c2cc(C(F)(F)F)c(F)c(O)c2F)nn3C)C(=O)C1` [Compound 9.102, 1-(3-(2,4-Difluoro-3-hydroxy-5-(trifluoromethyl)phenyl)-1-methyl-1H-pyrazolo[4,3-c]pyridin-6-yl)-4-methylpiperazin-2-one], the IC50 lay in the range of 100 to 1000 nM. As for `Cn1nc(-c2cc(C(F)(F)F)c(F)c(O)c2F)c2cc(F)c(N3CCOCC34CCC4)nc21` [Compound 9.107, 2,6-Difluoro-3-(5-fluoro-1-methyl-6-(8-oxa-5-azaspiro[3.5]nonan-5-yl)-1H-pyrazolo[3,4-b]pyridin-3-yl)-5-(trifluoromethyl)phenol], the IC50 is under 100 nM. To `Cn1nc(-c2cc(C(F)(F)F)c(F)c(O)c2F)c2cnc(N3CCN(S(C)(=O)=O)C4(COC4)C3)nc21` [Compound 18.112, 2,6-Difluoro-3-(1-methyl-6-(5-(methylsulfonyl)-2-oxa-5,8-diazaspiro[3.5]nonan-8-yl)-1H-pyrazolo[3,4-d]pyrimidin-3-y1)-5-(trifluoromethyl)phenol] belongs under 100 nM; to `Cn1nc(-c2cc(C(F)(F)F)c(F)c(O)c2F)c2cnc(N3C[C@H]4CC[C@@H](C3)O4)cc21` [Compound 9.90, 3-(6-(cis-8-Oxa-3-azabicyclo[3.2.1]octan-3-yl)-1-methyl-1H-pyrazolo[4,3-c]pyridin-3-yl)-2,6-difluoro-5-(trifluoromethyl)phenol], under 100 nM. Then `Cn1nc(-c2cc(C(F)(F)F)c(F)c(O)c2F)c2cnc(NC34CC(C3)C4)nc21` [Compound 9.15, 3-(6-(Bicyclo[1.1.1]pentan-1-ylamino)-1-methyl-1H-pyrazolo[3,4-d]pyrimidin-3-yl)-2,6-difluoro-5-(trifluoromethyl)phenol], with under 100 nM; and `Cn1nc(-c2cc(C(F)(F)F)c(F)c(O)c2F)c2cnc(N3CCC4(CCNC4=O)CC3)nc21` [Compound 18.10, 8-(3-(2,4-Difluoro-3-hydroxy-5-(trifluoromethyl)phenyl)-1-methyl-1H-pyrazolo[3,4-d]pyrimidin-6-yl)-2,8-diazaspiro[4.5]decan-1-one], with under 100 nM; and `Cn1nc(-c2ccc(Cl)c(O)c2F)c2cnc(N3CCN(S(C)(=O)=O)C4(CC4)C3)nc21` [Compound 12.06, 6-Chloro-2-fluoro-3-(1-methyl-6-(4-(methylsulfonyl)-4,7-diazaspiro[2.5]octan-7-yl)-1H-pyrazolo[3,4-d]pyrimidin-3-yl)phenol], with 100 to 1000 nM.

For the compound `Oc1cc(-c2n[nH]c3nc(N4CC5(CCOCC5)C4)cnc23)cc(C(F)(F)F)c1F` [Compound 10.06, 5-(6-(7-Oxa-2-azaspiro[3.5]nonan-2-yl)-1H-pyrazolo[3,4-b]pyrazin-3-yl)-2-fluoro-3-(trifluoromethyl)phenol], the IC50 is 100 to 1000 nM. Then `Cn1nc(-c2cc(C(F)(F)F)c(F)c(O)c2F)c2cnc(N3CCOC(c4ccccn4)C3)nc21` (stereo not shown) [Compound 18.48, 2,6-Difluoro-3-(1-methyl-6-(2-(pyridin-2-yl)morpholino)-1H-pyrazolo[3,4-d]pyrimidin-3-y1)-5-(trifluoromethyl)phenol], with under 100 nM.
